1 molecule from patent US9884031B2, “Use of HDAC inhibitors for treatment of cardiac rhythm disorders” (THE TRUSTEES OF THE UNIVERSITY OF PENNSYLVANIA, priority 2007, dated 2018) can be followed below.

The experiment deals with Hop transgenic mice (HopX^Tg). Description: Morphometric analysis of hearts (heart weight, atrial weight ratios). The settings on record: for Heart weight to tibia length ratio (HW/TL), in words: TSA-Hop^Tg vs Hop^Tg mice. In kind it is in vivo, mouse. The procedure: Trichostatin A 0.6 mg/kg daily in a volume of 0.2 mL was given by intraperitoneal injection for 14 consecutive days upon inducible atrial arrhythmias and atrial structurally remodeling in an engineered mouse model with left ventricular hypertrophy and inducible atrial fibrillation. Transgenic mice over-expressing the homeodomain-only protein (Hop^Tg), which promotes cardiac hypertrophy and interstitial fibrosis, were divided into three groups: control, Hop^Tg mice and Hop^Tg mice treated with trichostatin A.
Hop^Tg mice had higher left ventricular end-diastolic pressure (LVEDP), and reduced peak systolic contraction and diastolic relaxation compared to WT mice. However, trichostatin A had no effect upon the LVEDP, systolic contraction or diastolic relaxation when treatment was initiated in animals aged 12-14 weeks of age. These parameters were similar between Hop^Tg and TSA-Hop^Tg mice, though still abnormal when compared to WT mice. In addition, the heart weight to tibia length ratio (HW/TL) was higher in Hop^Tg and TSA-Hop^Tg mice compared to WT, but there was no difference in the HW/TL between Hop^Tg and TSA-Hop^Tg mice. *P<0.05 compared to WT; ^†P<0.05 compared to TSA-Hop^Tg.

[1] abbreviates: TSA 0.6 mg/kg daily IP 14 days, HopX^Tg mice, n = 13, mean±SD.

Entries after “also recorded” stand apart in the source; their conditions may differ. Marks after values point to notes of the source that are not given here.

Consider `CC(/C=C/C(=O)NO)=C\[C@@H](C)C(=O)c1ccc(N(C)C)cc1` [TSA, Trichostatin A], for which, under setting [1], the Heart weight is 192.8 ± 15.5* mg. Besides, the Heart weight/body weight under setting [1] is listed as 7.4 ± 0.67* mg/g. Moreover, the “Heart weight to tibia length ratio (HW/TL), in words” value is, setting by setting: (14-18 week-old) “no significant changes; also recorded: no change”; (14-18 week-old, listed as trichostatin A) “no difference”. Also, where the note is “TSA-treated HopX^Tg vs HopX^Tg mice, 14-18 week-old”, the “Atrial weight/tibial length ratio (AW/TL), in words” value is “no significant changes; also recorded: no change”.
